Results taken from patent publication US10159670B2, “Methods of diagnosing and treating motor neuron diseases and other cellular stress-related diseases” (priority 2012, dated 2018).

System: Ago2 and Dicer protein interactions
Experiment: Targeted mass spectrometry of Ago2-Flag / Dicer-Flag interactions in HEK293 cells under stress
Format: cell-based
Settings: 0.5 mM, 60 min
Description: (FIG. 9A) The ratio of pre-miRNA to mature miRNA levels in NSC-34 cells, transfected with plasmids as indicated and in cells treated for 72 hrs with carrier alone (water, black) or with cycloheximide (CHX, 0.02 μg/ml, gray). Data normalized to control plasmid transfection. Pre-miRNAs further normalized to Gapdh (for FUS R495X, TDP-43 A315T) or to beta-actin (SOD1 G93A) and miRNA levels normalized to Snord68. Average of three independent experiments except for pre-miRNAs in the study of FUS R495X (n=2). Targeted quantitative mass spectrometry analysis of changes in the binding of Ago2 or Dicer to a set of proteins interactors under stress (FIGS. 9B-E). Immunoprecipitated Ago2-Flag (FIG. 9B) or Dicer-Flag (FIG. 9C) from HEK 293 cells, cultured under basal conditions or treated with sodium arsenite (0.5 mM, 60 min) was subjected to targeted mass-spectrometry analysis. Data is averaged from two or three different peptide standards per protein and normalized to the levels of co-immunoprecipiated peptides from untreated cells. Statistically significant result in a student t-test, between arsenite and control treatment is denoted (*p<0.05). Targeted mass spectrometry of (FIG. 9D) Dicer cofactors or (FIG. 9E) SG components, immunoprecipitated with AGO-Flag in FUS R495X-expressing HEK 293 that were further treated for 72 hrs with carrier alone or Cycloheximide (0.02 μg/ml). (FIG. 9F) The ratio of pre-miRNA to mature miRNA levels in mouse embryonic fibroblasts, pretreated for 5 hrs with HSP90 inhibitors (17-AAG, 1 μM or Geldanamycin, 1 μM) and then incubated for 36 more hours with Thapsigargin (5 nM) in combinations with the respective HSP90 inhibitor. Bars represent the average of three independent experiments. miRNA normalized to the expression levels of Snord70, and pre-miRNA normalized to Gapdh.
For mass-spectrometry, HEK293 that either stably express Ago2-FLAG (n=3 for each group) or Dicer-Flag transfected cells (48 hrs post-transfection, n=4 for each group) were untreated or stressed with 0.5 mM sodium arsenite for 60 minutes before harvest. IP was performed with the FLAG-IPT1 Kit (Sigma-Aldrich). Negative controls were HEK293 cells not containing a FLAG-construct. Samples containing the eluted proteins and the FLAG peptide were filtered using 3 kDa molecular weight cut-off spin columns (Amicon, Millipore). Buffer was exchanged to 50 mM ammonium bicarbonate (Sigma-Aldrich) in the same step. Proteins were reduced by addition of dithiothreitol (Sigma-Aldrich) to a final concentration of 5 mM and incubation for 30 minutes at 60° C., and alkylated with 10 mM iodoacetamide (Sigma-Aldrich) in the dark for 30 minutes at 21° C. The proteins were then digested using trypsin (Promega; Madison, Wis., USA) at a ratio of 1:50 (w/w trypsin/protein) for 16 hrs at 37° C. […]

Structure (SMILES): O=[As]O [sodium arsenite]
- Ago2 and/or Dicer protein interactions with SG components eiF2S1, eIF3, eIF5a and with PCBP1, PCBP2: increased Ago2 and/or Dicer protein interactions with SG components
- increase of Ago2 phosphorylation on serine-387: more than 10 fold
- interaction of HSP90 and co-chaperone p23 with Dicer: increased interaction with Dicer under stress
- interactions of Ago2 with Dicer (relative to basal conditions): enhanced interactions of Ago2 with Dicer
